Measurements published in the supplement of paper PMC10307832.

Columns and labels:
Assay in all cases: relative viability (nuclei count vs DMSO), 5 days (fraction); higher = more cells survive
Cabozantinib + Lapatinib = compound: COc1cc2nccc(Oc3ccc(NC(=O)C4(C(=O)Nc5ccc(F)cc5)CC4)cc3)c2cc1OC [Cabozantinib] + CS(=O)(=O)CCNCc1ccc(-c2ccc3ncnc(Nc4ccc(OCc5cccc(F)c5)c(Cl)c4)c3c2)o1 [Lapatinib] (partner 2 µM)
Method in brief: (§1)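 Relative viability divides the nuclei count in treated wells by that in vehicle wells. Lung cancer cell lines were seeded in 1536-well plates, dosed by pin tool the next day, and fixed and stained after 5 days in one step with final 0.05% Triton X-100, 1% formaldehyde and 1 ug/ml Hoechst. Dosing was a single drug or a fixed anchor-drug dose plus five library-drug doses (not always all listed) in √10 steps, and values are medians of duplicate plates imaged at 4×.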

Zosuquidar + Phenformin = compound: O[C@@H](COc1cccc2ncccc12)CN1CCN([C@@H]2c3ccccc3[C@@H]3[C@H](c4ccccc42)C3(F)F)CC1 [Zosuquidar] + N=C(N)NC(=N)NCCc1ccccc1 [Phenformin] (partner 250 µM)
Method in brief: as §1

Zosuquidar + Olaparib = compound: O[C@@H](COc1cccc2ncccc12)CN1CCN([C@@H]2c3ccccc3[C@@H]3[C@H](c4ccccc42)C3(F)F)CC1 [Zosuquidar] + O=C(c1cc(Cc2n[nH]c(=O)c3ccccc23)ccc1F)N1CCN(C(=O)C2CC2)CC1 [Olaparib] (partner 8 µM)
Method in brief: as §1

Kobe2602 + Phenformin = compound: C1=CC(=CC=C1NC(=S)NNC2=C(C=C(C=C2[N+](=O)[O-])C(F)(F)F)[N+](=O)[O-])F [Kobe2602] + N=C(N)NC(=N)NCCc1ccccc1 [Phenformin] (partner 250 µM)
Method in brief: as §1

Cell Line	relative viability (Cabozantinib + Lapatinib; first compound 0.06325 µM)	relative viability (Cabozantinib + Lapatinib; first compound 0.2 µM)	relative viability (Cabozantinib + Lapatinib; first compound 0.6325 µM)	relative viability (Cabozantinib + Lapatinib; first compound 2 µM)	relative viability (Zosuquidar + Phenformin; first compound 0.01 µM)	relative viability (Zosuquidar + Phenformin; first compound 0.03162 µM)	relative viability (Zosuquidar + Phenformin; first compound 0.1 µM)	relative viability (Zosuquidar + Phenformin; first compound 0.3162 µM)	relative viability (Zosuquidar + Phenformin; first compound 1 µM)	relative viability (Zosuquidar + Olaparib; first compound 0.01 µM)	relative viability (Zosuquidar + Olaparib; first compound 0.03162 µM)	relative viability (Zosuquidar + Olaparib; first compound 0.1 µM)	relative viability (Zosuquidar + Olaparib; first compound 0.3162 µM)	relative viability (Zosuquidar + Olaparib; first compound 1 µM)	relative viability (Kobe2602 + Phenformin; first compound 0.2 µM)	relative viability (Kobe2602 + Phenformin; first compound 0.6325 µM)	relative viability (Kobe2602 + Phenformin; first compound 2 µM)	relative viability (Kobe2602 + Phenformin; first compound 6.325 µM)	relative viability (Kobe2602 + Phenformin; first compound 20 µM)	relative viability (Cabozantinib + Lapatinib; first compound 0.02 µM)
LK-2	1.15	0.929	0.948	0.856	0.413	0.412	0.549	0.67	0.475	0.542	0.891	0.597	0.752	0.852	0.461	0.579	0.489	0.624	0.516	–
LOU-NH91	0.776	0.781	0.711	0.712	0.62	0.702	–	0.768	0.692	0.845	0.904	0.728	0.97	0.873	0.669	0.775	0.639	0.614	0.658	0.687
LU99A	1.07	0.985	0.996	0.931	0.859	0.793	0.834	0.971	0.808	0.239	0.264	0.285	0.273	0.254	0.814	0.916	0.79	0.906	0.931	0.896
LXF-289	0.922	0.896	0.918	0.92	0.52	0.502	0.484	0.543	0.5	1.01	1.03	1.09	1.09	1	0.495	0.577	0.494	0.536	0.518	0.91
NCI-H23	1.37	1.07	1.04	0.885	0.722	0.708	0.78	0.895	0.805	0.328	–	0.362	0.319	0.336	0.75	0.782	0.762	0.723	0.814	–
NCI-H322M	0.632	–	0.584	0.58	0.809	0.856	0.586	0.793	0.858	0.774	0.898	0.665	0.698	0.796	0.798	0.857	0.808	0.826	0.771	0.454
NCI-H358	0.418	0.454	0.358	0.369	0.278	0.293	0.281	0.359	0.335	0.671	0.632	0.519	0.65	0.703	0.381	0.391	0.323	0.371	0.353	0.449
NCI-H460	1.13	0.958	0.97	0.981	0.48	0.508	0.445	0.529	0.498	0.41	0.403	0.32	0.421	0.39	0.516	0.513	0.614	0.514	0.499	1.19
NCI-H520	0.924	0.72	0.973	0.566	0.567	0.579	–	0.658	0.565	0.395	0.312	0.341	0.29	0.335	0.539	0.582	0.632	0.654	0.539	1.08
NCI-H596	1.21	0.956	1.05	1.02	0.765	–	0.798	0.909	0.761	0.651	0.607	0.67	0.696	0.666	0.717	0.816	0.672	0.614	0.737	1.17
NCI-H647	1.45	1.15	1.13	0.734	0.531	0.39	0.453	0.592	0.462	0.564	0.519	0.559	0.674	0.566	0.554	0.549	0.655	0.481	0.441	1.29
NCI-H650	1.06	1.23	0.491	0.766	0.464	0.42	0.379	0.482	0.448	0.393	0.393	0.394	0.454	0.369	0.454	0.538	0.471	0.457	0.452	0.787
NCI-H661	0.467	0.502	0.449	0.343	0.267	0.254	0.275	0.275	0.27	0.718	0.731	0.737	0.727	0.759	0.273	0.277	0.261	0.298	0.298	0.46
NCI-H727	1.27	0.702	0.806	0.783	0.318	0.563	0.466	0.522	0.519	0.72	0.772	–	0.746	0.7	0.594	0.559	0.535	0.52	0.633	0.61
NCI-H838	0.997	0.895	0.881	0.877	0.568	0.418	0.432	0.663	0.576	0.758	0.74	0.814	0.825	0.847	0.549	0.71	0.574	0.577	0.554	1.01
